Series [1] has as its system Male C57BL/6 mice. Description: Locomotor ambulatory activity. The series is classed as in vivo. The source says:
Many, but not all, psychostimulants with potent action at DAT, also stimulate locomotor ambulatory activity in rodents. […] Male C57BL/6 mice were contained in a box equipped with infrared beams, the consecutive interruption of which by horizontal activity by the mouse provided a measure for ambulation.

The conditions of series [2]: 25 mg/kg i.p., reported levels, cited from earlier work.
The target of series [3] is T1, human DAT (Homo sapiens, UniProt Q01959).
T1 construct: expressed in transfected cells; cells as described by Chen et al., J. Neurochem; 2004, 89:853-864
T1 sequence (Q01959 whole entry): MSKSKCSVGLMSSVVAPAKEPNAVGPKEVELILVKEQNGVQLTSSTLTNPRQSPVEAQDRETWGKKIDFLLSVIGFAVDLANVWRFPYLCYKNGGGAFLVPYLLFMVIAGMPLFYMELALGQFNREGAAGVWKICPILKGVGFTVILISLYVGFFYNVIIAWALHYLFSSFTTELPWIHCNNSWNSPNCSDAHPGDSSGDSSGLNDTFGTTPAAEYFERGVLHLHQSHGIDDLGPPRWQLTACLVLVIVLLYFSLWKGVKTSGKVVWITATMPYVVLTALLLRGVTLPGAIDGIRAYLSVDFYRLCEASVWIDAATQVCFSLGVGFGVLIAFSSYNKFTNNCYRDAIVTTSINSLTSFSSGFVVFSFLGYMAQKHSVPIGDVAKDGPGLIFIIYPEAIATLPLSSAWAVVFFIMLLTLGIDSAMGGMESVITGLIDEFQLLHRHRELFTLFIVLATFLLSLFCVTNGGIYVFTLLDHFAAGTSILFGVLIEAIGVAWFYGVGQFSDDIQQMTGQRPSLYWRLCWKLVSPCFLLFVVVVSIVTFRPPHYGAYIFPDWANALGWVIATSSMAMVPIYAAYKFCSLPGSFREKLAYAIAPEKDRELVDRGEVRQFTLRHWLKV
Put plainly: Inhibition of [3H]DA uptake in cells expressing cloned human DAT. It is filed as cell-based.

In series [4] the target is T2, human SERT (Homo sapiens, UniProt P31645).
T2 construct: expressed in transfected cells; cells as described by Eshleman et al., J. Pharmacol. Exp. Ther. 1995, 274:276-283
T2 sequence (P31645 whole entry): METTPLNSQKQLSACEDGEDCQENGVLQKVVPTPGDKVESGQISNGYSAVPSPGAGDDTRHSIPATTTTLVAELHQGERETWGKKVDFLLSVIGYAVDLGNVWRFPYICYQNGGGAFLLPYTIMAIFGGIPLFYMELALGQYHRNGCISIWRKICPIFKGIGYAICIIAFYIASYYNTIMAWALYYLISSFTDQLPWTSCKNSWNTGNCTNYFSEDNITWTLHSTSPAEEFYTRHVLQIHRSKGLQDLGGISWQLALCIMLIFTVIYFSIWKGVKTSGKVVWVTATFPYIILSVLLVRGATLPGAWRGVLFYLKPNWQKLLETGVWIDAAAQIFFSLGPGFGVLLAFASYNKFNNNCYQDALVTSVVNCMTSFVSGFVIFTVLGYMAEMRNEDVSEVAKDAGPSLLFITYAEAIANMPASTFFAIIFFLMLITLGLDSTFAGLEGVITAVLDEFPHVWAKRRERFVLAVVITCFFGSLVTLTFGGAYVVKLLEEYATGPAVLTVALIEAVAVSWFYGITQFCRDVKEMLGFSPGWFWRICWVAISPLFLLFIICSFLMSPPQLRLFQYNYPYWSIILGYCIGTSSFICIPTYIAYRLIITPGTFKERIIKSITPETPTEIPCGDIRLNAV
Description: cell-based.

In series [5] the target is T3, human NET (Homo sapiens, UniProt P23975).
T3 construct: expressed in transfected cells; cells as described by Reith et al., J. Neurosci
T3 sequence (P23975 whole entry): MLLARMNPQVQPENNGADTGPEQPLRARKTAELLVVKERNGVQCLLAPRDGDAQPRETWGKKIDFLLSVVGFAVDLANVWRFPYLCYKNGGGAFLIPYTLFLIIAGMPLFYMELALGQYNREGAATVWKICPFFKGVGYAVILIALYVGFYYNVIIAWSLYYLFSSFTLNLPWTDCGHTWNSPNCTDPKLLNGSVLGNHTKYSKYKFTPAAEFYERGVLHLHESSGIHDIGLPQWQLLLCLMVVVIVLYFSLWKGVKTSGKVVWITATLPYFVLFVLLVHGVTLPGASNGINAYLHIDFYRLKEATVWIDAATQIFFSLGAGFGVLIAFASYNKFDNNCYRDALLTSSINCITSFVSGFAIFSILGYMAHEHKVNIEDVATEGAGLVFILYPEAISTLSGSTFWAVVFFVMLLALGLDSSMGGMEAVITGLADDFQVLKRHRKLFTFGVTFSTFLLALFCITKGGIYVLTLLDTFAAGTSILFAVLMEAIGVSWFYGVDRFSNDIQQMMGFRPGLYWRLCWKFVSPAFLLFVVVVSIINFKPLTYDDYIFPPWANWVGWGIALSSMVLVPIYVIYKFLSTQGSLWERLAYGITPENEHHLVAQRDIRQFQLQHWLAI
Description: cell-based.

Series [6] has as its system adult male C57BL/6 mice. Description: Forced swim test model of antidepressant-like activity. The settings on record: vs saline. The series is classed as in vivo. The procedure: Data are mean ±SEM (vertical bar). ***P<0.001, n=7-9 (One-way ANOVA and Bonferroni post-hoc tests).
The Forced Swim Test (FST) is a rodent model often used to evaluate the anti-depressive effect of therapeutics. Rats swim under conditions in which escape is not possible. On the first day, rats are forced to swim for 15 minutes. The animals are observed to initially struggle to escape from the water. They then adopt a posture of immobility making only movements necessary to keep their heads above water. The rats are retested 24 hours later. The immobility increases. Treatment with standard antidepressant drugs within the 24 hours between the first exposure to forced swimming and retesting can block facilitated immobility, an effect which is associated with antidepressant efficacy in humans. See Porsolt et al, (1977) Nature 266:730-732; Detke et al. (1995) Psychopharmacology 121:66-72.
Antidepressant-like activity of compound 11 was tested in the forced swim test model as previously described (Porsolt et al., supra; Castagne et al. (2011) Curr Protoc Neurosci 55: Unit 8.10A). Briefly, adult male C57BL/6 mice (N=7-9/group) were placed into individual glass cylinders containing clean 25° C. (±1° C.) water, 15 cm deep for 15 minutes. Mice were removed, dried and returned to their home cages. A second 6-minute swim test was given 24 hours after the first. Saline (3 ml/kg, i.p.), Compound 11 (30 mg/kg, i.p.) or desipramine (10 mg/kg, i.p.; a well-known antidepressant, used as a positive control) were administered […], 5 hours, and 1 hour before the second swim test (i.e., 30 minutes, 19 hours and 23 hours after the first swim). Test sessions were video recorded. Behavior during the 6-minute swim test was scored from the videotapes. The cumulative amount of time that the mouse was immobile in the water during the last 4 minutes of the test was measured, as was the latency for the mouse to show the first bout of immobility behavior. Immobility was defined as the mouse performing no movements except those necessary to keep the head above the water (e.g., no swimming or climbing behaviors). […] Immobility scores were analyzed by a one-way ANOVA, followed by the Bonferroni post-hoc analysis.

The nature of series [7]: Brain uptake: brain and plasma levels by mass spectrometry. The settings on record: for concentration at 5 min / concentration at 30 min: male, CD-1, mouse, intraperitoneal, 30 mg/kg. As for the experimental part: Data shown are mean±SEM (vertical bar).
Brain and plasma levels of 11 were determined by mass spectrometry.

Where [8] appears, read: tested at 10 mg/kg and 30 mg/kg.

SMILES strings stand for the structures. Entries after “also recorded” stand apart in the source; their conditions may differ. Where two headings read alike, the source gives them in different places.

One may read the Ki as a dissociation constant, usually derived from enzyme kinetics or from competition with a known ligand. High values mean weaker binding, low ones tighter binding.

Consider `COC(=O)[C@H]1[C@@H](OC(=O)c2ccccc2)C[C@@H]2CC[C@H]1N2C` [cocaine, methyl-(1R,2R,3S,5S)-3-(benzoyloxy)-8-methyl-8-azabicyclo[3.2.1]octane-2-carboxylate], for which the Locomotor stimulation result in series [1] (10 mg/kg intraperitoneally) is “slight elevation above saline”; in series [1] (30 mg/kg intraperitoneally), “pronounced increase”. Moreover, the Brain level is 6700 ± 1200 ng/mL in series [2] (5 minutes) and 2300 ± 300 ng/mL in series [2] (30 minutes). Further, the Plasma level is 1100 ± 100 ng/mL in series [2] (5 minutes) and 400 ± 50 ng/mL in series [2] (30 minutes).

On to `CCC[C@@]12CC[C@@H](C[C@H](OC(=O)c3ccccc3)[C@@H]1C(=O)OC)N2C` [Compound 11a, Methyl (1R,2R,3S,5S)-(−)-1-propyl-3-(benzoyloxy)-8-methyl-8-azabicyclo[3.2.1]octane-2-carboxylate], for which the results for the Ki in series [3], in series [4] and in series [5] were 871 ± 205 nM, 2990 nM and 796 ± 195 nM, respectively. For the same compound, the Locomotor stimulation result in series [1] (setting [8]) was “locomotor activities below those observed with 10 mg/kg of cocaine”.

`CCCCC[C@@]12CC[C@@H](C[C@H](OC(=O)c3ccccc3)[C@@H]1C(=O)OC)N2C` [Compound 11c, Methyl (1R,2R,3S,5S)-(+)-1-pentyl-3-(benzoyloxy)-8-methyl-8-azabicyclo[3.2.1]octane-2-carboxylate]: the Ki was found to be 1270 nM in series [3], 1890 nM in series [4] and 1600 ± 21 nM in series [5]. Moreover, the Locomotor stimulation result in series [1] (setting [8]) was “locomotor activities below those observed with 10 mg/kg of cocaine”.

Consider `CNCCCN1c2ccccc2CCc2ccccc21` [desipramine, reference compound], for which, in series [6] (10 mg/kg i.p.), the Immobility time result was “decreased immobility time” and the “Latency to first episode of immobility” value is on record as “increased latency to first episode of immobility”.

Turning to `COC(=O)[C@H]1[C@@H](OC(=O)c2ccccc2)C[C@@H]2CC[C@@]1(c1ccccc1)N2C` [Compound 11d, Methyl (1R,2R,3S,5S)-(−)-3-(benzoyloxy)-1-phenyl-8-methyl-8-azabicyclo[3.2.1]octane-2-carboxylate], the results for the Ki in series [3], in series [4] and in series [5] were 31.9 ± 5.7 nM, 974 ± 308 nM and 1980 nM, respectively. The “Potency at blocking DAT relative to cocaine” value in series [3] (versus cocaine) is reported as “ten-fold more potent than cocaine”. The Locomotor stimulation result in series [1] (setting [8]) is “locomotor activities below those observed with 10 mg/kg of cocaine”.

Consider `COC(=O)C1[C@@H](OC(=O)c2ccccc2)CC2CCC1(C)N2C` (stereo partly drawn) [Compound 11, Methyl (1R,2R,3S,5S)-(−)-3-(benzoyloxy)-1,8-dimethyl-8-azabicyclo[3.2.I]octane-2-carboxylate], for which the Ki in series [3] is 168 ± 23 nM; in series [4], 435 ± 77 nM; in series [5] it was 488 ± 101 nM. Further, the concentration at 5 min turned out to be 8600 ± 700 ng/mL in series [7] (brain) and 3300 ± 200 ng/mL in series [7] (plasma). Moreover, the concentration at 30 min was determined as 3800 ± 200 ng/mL in series [7] (brain) and 1700 ± 300 ng/mL in series [7] (plasma). In addition, the Brain penetration entry in series [7] (pharmacokinetic assay, compared with cocaine) was “occupies the brain as readily as cocaine”. Moreover, the Locomotor stimulation result in series [1] (30 mg/kg intraperitoneally) was “did not stimulate locomotion to levels above those seen with 10 mg/kg of cocaine”. Further, the Immobility time entry in series [6] (30 mg/kg i.p., last 4 minutes of the 6-minute swim test) was “decreased immobility time; also recorded: as effective as the antidepressant desipramine in reducing immobility time”. The “Latency to first episode of immobility” value in series [6] (30 mg/kg i.p.) is reported as “increased latency to first episode of immobility; also recorded: significantly increased over saline”.

Take `CC[C@@]12CC[C@@H](C[C@H](OC(=O)c3ccccc3)[C@@H]1C(=O)OC)N2C` [Compound 11b, Methyl (1R,2R,3S,5S)-(−)-1-ethyl-3-(benzoyloxy)-8-methyl-8-azabicyclo[3.2.1]octane-2-carboxylate]: the inhibition constant (Ki) worked out at 95.1 ± 17 nM in series [3], 1110 nM in series [4] and 598 ± 179 nM in series [5]. Also, in series [1] (setting [8]), the Locomotor stimulation entry is “locomotor activities below those observed with 10 mg/kg of cocaine”.

The record behind these values is patent US8557842B2 (priority 2010, dated 2013).
